Tests used:
[1] = system: phosphorylation of Akt at Serine 473 in U87 MG cells; assay: pAkt AlphaScreen (U87 cell); type: cell-based; conditions: Homo sapiens, U-87 MG, 2 h; pAkt at Serine 473, U87 MG cells, two hours with compound
Description: The pAkt AlphaScreen® assay (PerkinElmer, Waltham, Mass.) determines whether there is phosphorylation of Akt at Serine 473 by recruitment of a phosphospecific antibody. This assay was performed using U87 MG cells. The U87 growth media consists of MEM (Gibco, Carlsbad, Calif.) supplemented with 10% FBS (Gibco), 1× Non-Essential Amino Acids (Gibco,) and 1× Penicillin/Streptomycin/Glutamine (Gibco). The cells were maintained weekly using 0.05% Trypsin (Gibco) and replated in 150 mm TC— Treated Culture Dishes (Corning, Corning, N.Y.).
The first day of the assay, the adherent cells were trypsinized, media was added to the loose cells and cells were mixed to a homogenous mixture. 0.5 ml of the homogenous mixture was counted on the Beckman Coulter® Vi-Cell™ XR (Fullerton, Calif.). 50 frames of cells were counted and the number of viable cells was determined. The cells were then diluted to 0.25 million cells per ml, and centrifuged at 200 rcf for 5 minutes. The media was removed and the cells were reconstituted in fresh media for plating. The cells were plated at 20 μl per well on the PerkinElmer® FlexDrop PLUS in Low Volume 384 Well White Tissue Culture Plates (Corning) with a final cell density of 5K cells per well. The plates were incubated overnight at 37° Celsius, 5% CO2.
On the second day, the compound plates were prepared, the cells were treated with compound and the pAkt reaction mix was added to the cell lysate. 384 well compound plates were prepared containing 1 μl of compound per well starting at 5 mM and diluted 1:2 across the row, resulting in a 22 well serial dilution. 39 μl of growth media was added to the compound plate in rows 1-22 using the PerkinElmer® FlexDrop PLUS resulting in a DMSO concentration of 2.5%. The cell plates and diluted compound plates were put onto the VELOCITY11™ VPREP™ 384 ST where the compound plate was mixed and 5 μl of serially diluted compound or controls was added to the cell plate. The final concentration of the compounds was 25 μM serially diluted to 11.9 pM in 0.5% DMSO.
The cell plates were then incubated with compound for two hours at 37° C., 5% CO2. After two hours, the media in the cell plates was aspirated using the BioTek® ELx405HT plate washer (Winooski, Vt.) removing the majority of media and compound without disturbing the adherent U87 cells. The following assay reagents are components of the SureFire® Akt (Ser 473) Phosphorylation 50K Point Kit (TGR BioSciences, Adelaide, Austalia) and an IgG Detection Kit (PerkinElmer, Waltham, Mass.). 5 μl of 1× Lysis Buffer was added to each well using the PerkinElmer® FlexDrop PLUS. The plates were then incubated at room temperature on a shaker for ten minutes. The AlphaScreen® reaction was prepared under low light conditions (subdued or green light) including p-Aid (Ser 473) Reaction Buffer, Dilution Buffer, Activation Buffer, Acceptor Beads and Donor Beads at a ratio of 40:20:10:1:1 respectively. The AlphaScreen® reaction was added to the cell lysate at 6 μl per well using the PerkinElmer® FlexDrop PLUS. The plates were placed in a humid environment to reduce edge effects and incubated overnight at room temperature with restricted air flow in the dark.
On the final day of the experiment, the plates were read on the PerkinElmer® EnVision™ 2103 Multilable Reader using the standard AlphaScreen® readout. The POC is calculated and the data is analyzed to report the IC50 IP for pAkt at Serine 473.
Activity data for the compounds tested in the PI3K cell based Akt assay is provided in Table 1 under the column heading U87

PI3Kα = target: T1, PI3Kα (Homo sapiens, UniProt P42336); assay: In vitro PI3K AlphaScreen assay, PI3Kα; type: biochemical; conditions: PI(4,5)P2 substrate, 20 minutes at room temperature, read-out: P13Kalpha IC50 um
T1 construct: Full length p110 subunits of PI3K α, β and δ, N-terminally labeled with polyHis tag; polyHis (N); made in house; host or cells: Sf9 insect cells (baculovirus)
Description: The PI3K AlphaScreen® assay (PerkinElmer, Waltham, Mass.) measures the activity of a panel of four phosphoinositide 3-kinases: PI3Kα, PI3KIβ, PI3Kγ, and PI3Kδ. Each of these enzymes phosphorylates the 3′-hydroxyl group on phosphatidylinositiol (4,5)-bisphosphate (PIP2) to produce phosphatidylinositol (3,4,5)-trisphosphate (PIP3). This phosphorylation activity is measured using a GST-tagged PIP3 binding protein (Echelon Biosciences, Salt Lake City, Utah), an anti-GST-tagged Acceptor bead, and streptavidin-Donor bead. The interaction of biotinylated-PIP3 analog (IP4) and the PIP3 binding protein brings both Acceptor and Donor beads together producing, upon excitation of the Donor beads at 680 nm, a singlet oxygen species leading to the luminescent AlphaScreen® signal. When PIP3 is produced via phosphorylation of PIP2 by a PI3K, PIP3 competes with biotinylated-PIP3 analog (IP4) for binding to the PIP3 binding protein. In the absence of this interaction, proximity of the Donor and Acceptor beads is decreased, producing a loss of luminescent signal which is […] to PI3K activity. […] The enzyme reaction buffer is made using sterile water (Baxter, Deerfield, Ill.) and 50 mM Tris HCl pH 7, 14 mM MgCl2, 2 mM sodium cholate, and 100 mM NaCl. 2 mM DTT is added fresh the day of the experiment. The AlphaScreen® reaction buffer is made using sterile water and 10 mM Tris HCl pH 7.5, 150 mM NaCl, 0.10% Tween 20, and 30 mM EDTA. 1 mM DTT is added fresh the day of the experiment. The source plates for this assay are 384-well Greiner clear polypropylene plates containing test compounds at 5 mM and diluted 1:2 over 22 points. Columns 23 and 24 contain only DMSO as these are designated for positive and negative controls. Source plates are replicated into 384-well Optiplates (PerkinElmer, Waltham, Mass.), 0.5 μL/well, to make assay-ready plates. The different PI3K isoforms are each diluted in enzyme reaction buffer to 2× working solutions. PI3Kα is diluted to 1.6 nM, PI3Kβ is diluted to 0.8 nM, PI3Kγ is diluted to 15 nM, and PI3Kδ is diluted to 1.6 nM. Two different 2× substrate solutions are made in enzyme reaction buffer. In one solution, PI(4,5)P2 (Echelon Biosciences, Salt Lake City, Utah) is diluted to 10 μM and ATP is diluted to 20 μM. This solution is used in the assays testing PI3Kα and PI3Kβ. In a second solution, PI(4,5)P2 is diluted to 10 μM and ATP is diluted to 80 μM. This solution is used in the assays testing PI3Kγ and PI3Kδ. The AlphaScreen® reaction solutions are made using beads from the anti-GST AlphaScreen® kit (PerkinElmer, Waltham, Mass.). Two solutions are made in Alphascreen reaction buffer to 4× working concentrations. In one solution, biotinylated-IP4 (Echelon Biosciences, Salt Lake City, Utah) is diluted to 40 nM and streptavadin-Donor Beads are diluted to 80 μg/mL. In the second solution, PIP3-binding protein (Echelon Biosciences, Salt Lake City, Utah) is diluted to 40 nM and anti-GST-Acceptor Beads are diluted to 80 μg/mL. 10 μL/well of enzyme reaction buffer is added to Column 24 of the assay ready plates in place of enzyme. This is done for plates in the PI3Kα, β, and δ assays. Using a 384-well dispensing Multidrop (Titertek, Huntsville, Ala.), 10 μL/well of 2× enzyme (PI3Kα, β, δ) is added to Columns 1-23 of the appropriate assay ready plates (for PI3Kγ 10 μL is added to Columns 1-24). 10 μL/well of the appropriate substrate solution (the solution with 20 μM ATP for PI3Kα and β assays, and the solution with […] for PI3Kγ and δ assays) is then added to Columns 1-24 of the plates. Plates are then incubated at room temperature for 20 minutes. In the dark, 10 μL/well of the Donor Bead solution is added to Columns 1-24 of the plates to quench the enzyme reaction. The plates are incubated at room temperature for 30 minutes. Still in the dark, 10 μL/well of the Acceptor Bead solution is also added to Columns 1-24 of the plates. The plates are then incubated in the dark for 1.5 hours.

T1 sequence (P42336 whole entry): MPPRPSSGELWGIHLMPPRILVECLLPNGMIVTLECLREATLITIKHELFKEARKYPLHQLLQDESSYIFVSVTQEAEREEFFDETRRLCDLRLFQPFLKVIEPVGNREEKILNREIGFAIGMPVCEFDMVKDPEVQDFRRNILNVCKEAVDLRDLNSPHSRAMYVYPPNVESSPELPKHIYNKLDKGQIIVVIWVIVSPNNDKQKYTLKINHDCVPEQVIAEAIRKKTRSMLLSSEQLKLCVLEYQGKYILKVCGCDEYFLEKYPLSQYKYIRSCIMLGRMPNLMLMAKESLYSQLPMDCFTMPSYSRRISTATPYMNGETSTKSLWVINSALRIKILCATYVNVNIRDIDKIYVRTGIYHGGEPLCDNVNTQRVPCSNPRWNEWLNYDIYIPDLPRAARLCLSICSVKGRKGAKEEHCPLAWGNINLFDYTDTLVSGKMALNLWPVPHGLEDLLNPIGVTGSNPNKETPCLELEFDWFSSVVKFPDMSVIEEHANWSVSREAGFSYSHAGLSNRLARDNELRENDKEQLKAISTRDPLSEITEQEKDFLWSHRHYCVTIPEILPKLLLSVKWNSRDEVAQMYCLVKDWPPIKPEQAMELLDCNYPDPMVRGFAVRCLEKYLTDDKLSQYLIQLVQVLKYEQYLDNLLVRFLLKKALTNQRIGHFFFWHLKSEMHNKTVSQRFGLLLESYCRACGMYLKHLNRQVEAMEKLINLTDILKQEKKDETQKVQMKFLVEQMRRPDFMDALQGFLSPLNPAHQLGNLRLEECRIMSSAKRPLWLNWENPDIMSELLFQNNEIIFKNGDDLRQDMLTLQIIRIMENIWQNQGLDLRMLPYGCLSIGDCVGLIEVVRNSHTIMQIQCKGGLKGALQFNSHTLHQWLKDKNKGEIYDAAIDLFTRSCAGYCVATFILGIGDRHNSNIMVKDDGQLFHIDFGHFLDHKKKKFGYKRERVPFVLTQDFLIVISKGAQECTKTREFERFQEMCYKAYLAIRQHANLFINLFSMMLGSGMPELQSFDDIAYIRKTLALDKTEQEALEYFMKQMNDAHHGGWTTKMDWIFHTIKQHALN
T1 sequence (P27986 whole entry partner): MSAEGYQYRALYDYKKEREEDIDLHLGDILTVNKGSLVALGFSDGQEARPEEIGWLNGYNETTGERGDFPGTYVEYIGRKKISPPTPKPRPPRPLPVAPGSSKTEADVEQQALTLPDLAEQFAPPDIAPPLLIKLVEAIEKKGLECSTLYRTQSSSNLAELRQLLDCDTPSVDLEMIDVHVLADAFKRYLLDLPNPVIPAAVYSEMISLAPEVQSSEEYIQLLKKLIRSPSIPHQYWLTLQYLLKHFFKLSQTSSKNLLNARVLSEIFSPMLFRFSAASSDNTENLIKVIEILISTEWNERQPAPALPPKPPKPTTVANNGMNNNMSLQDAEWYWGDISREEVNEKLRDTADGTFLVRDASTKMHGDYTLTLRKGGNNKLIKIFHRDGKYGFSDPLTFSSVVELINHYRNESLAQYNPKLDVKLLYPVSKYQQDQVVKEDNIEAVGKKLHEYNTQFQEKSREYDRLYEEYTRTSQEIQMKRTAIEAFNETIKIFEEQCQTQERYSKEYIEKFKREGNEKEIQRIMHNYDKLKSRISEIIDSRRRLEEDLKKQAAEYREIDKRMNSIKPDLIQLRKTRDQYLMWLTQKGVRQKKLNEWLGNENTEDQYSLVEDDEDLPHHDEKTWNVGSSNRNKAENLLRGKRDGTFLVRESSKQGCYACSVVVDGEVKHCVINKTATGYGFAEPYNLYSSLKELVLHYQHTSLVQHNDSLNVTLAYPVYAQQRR

Row | Compound | IC50 [1] [µM] | IC50 (PI3Kα) [µM]
1 | Cc1nc(N)cc(-c2c(Nc3cccc(S(C)(=O)=O)c3)nc3cccnn23)n1 [Cpd 94, 3-(6-amino-2-methyl-4-pyrimidinyl)-N-(3-(methylsulfonyl)phenyl)imidazo[1,2-b]pyridazin-2-amine] | 3.92 | –
2 | Cc1nc(N)cc(-c2c(Nc3cccc(NC(=O)NC4CC4)c3)nc3cccnn23)n1 [Cpd 316, 1-(3-((3-(6-amino-2-methyl-4-pyrimidinyl)imidazo[1,2-b]pyridazin-2-yl)amino)phenyl)-3-cyclopropylurea] | 0.95 | –
3 | Cc1nc(NC(=O)Cc2cccc(F)c2)cc(-c2c(Nc3ccn(C)n3)nc3ccccn23)n1 [Cpd 128] | 3.16 | 5.03
4 | Cc1nc(Nc2ccc(N3CCOCC3)nn2)cc(-c2c(Nc3ccn(C)n3)nc3cccnn23)n1 [Cpd 149, 3-(2-methyl-6-((6-(4-morpholinyl)-3-pyridazinyl)amino)-4-pyrimidinyl)-N-(1-methyl-1H-pyrazol-3-yl)imidazo[1,2-b]pyridazin-2-amine] | 0.28 | –
5 | Cc1nc(NCC(F)(F)F)cc(-c2c(Nc3ccn[nH]3)nc3cccnn23)n1 [Cpd 295, 3-(2-methyl-6-((2,2,2-trifluoroethyl)amino)-4-pyrimidinyl)-N-1H-pyrazol-5-ylimidazo[1,2-b]pyridazin-2-amine] | 0.24 | 2.98
6 | Cc1nc(N)nc(-c2c(Nc3ccc4cccnc4c3)nc3ccc(N4CCN(C(=O)N(C)C)CC4)cn23)n1 [Cpd 277, 4-(3-(4-amino-6-methyl-1,3,5-triazin-2-yl)-2-(7-quinolinylamino)-imidazo[1,2-a]pyridin-6-yl)-N,N-dimethyl-1-piperazinecarboxamide] | 0.14 | 0.04
7 | Cc1nc(NC(=O)Cc2ccc(F)cc2F)cc(-c2c(Nc3ccn(C)n3)nc3cccnn23)n1 [Cpd 129, 2-(2,4-difluorophenyl)-N-(2-methyl-6-(2-((1-methyl-1H-pyrazol-3-yl)amino)imidazo[1,2-b]pyridazin-3-yl)-4-pyrimidinyl)acetamide] | 1.47 | 4.94
8 | Cc1nc(N)cc(-c2c(Nc3ccc(N4CC(O)C4)nc3)nc3cccnn23)n1 [Cpd 272, 1-(5-((3-(6-amino-2-methyl-4-pyrimidinyl)imidazo[1,2-b]pyridazin-2-yl)amino)-2-pyridinyl)-3-azetidinol] | 0.11 | 0.32
9 | Cc1nc(N)cc(-c2c(Nc3cccc(NC(=O)Cc4ccccc4)c3)nc3ccccn23)n1 [Cpd 318, N-(3-((3-(6-amino-2-methyl-4-pyrimidinyl)imidazo[1,2-a]pyridin-2-yl)amino)phenyl)-2-phenylacetamide] | – | 12
10 | Cc1nc(N)cc(-c2c(Nc3ccn(C(=O)Nc4cc(C(F)(F)F)ccc4Cl)n3)nc3cccnn23)n1 [Cpd 246, 3-((3-(6-amino-2-methyl-4-pyrimidinyl)imidazo[1,2-b]pyridazin-2-yl)amino)-N-(2-chloro-5-(trifluoromethyl)phenyl)-1H-pyrazole-1-carboxamide] | – | 15.8
11 | CNc1cc(-c2c(Nc3cc[nH]n3)nc3cc(N4CCOCC4)cnn23)nc(C)n1 [Cpd 88, 3-(2-methyl-6-(methylamino)-4-pyrimidinyl)-7-(4-morpholinyl)-N-1H-pyrazol-3-ylimidazo[1,2-b]pyridazin-2-amine] | 1.63 | 4.5
12 | CNC(=O)c1cccc(Nc2nc3cccnn3c2-c2cc(N)nc(C)n2)c1 [Cpd 334] | 0.24 | 4.94
13 | Cc1nc(N)nc(-c2c(Nc3ccn[nH]3)nc3ccc(C(N)=O)cn23)n1 [Cpd 293, 3-(4-amino-6-methyl-1,3,5-triazin-2-yl)-2-(1H-pyrazol-5-ylamino)-imidazo[1,2-a]pyridine-6-carboxamide] | 0.71 | 0.3
14 | COCCN1CCN(c2ccc3nc(Nc4cnc(OC)c(F)c4)c(-c4nc(C)nc(N)n4)n3c2)CC1 [Cpd 29, 3-(4-amino-6-methyl-1,3,5-triazin-2-yl)-N-(5-fluoro-6-methoxy-3-pyridinyl)-6-(4-(2-methoxyethyl)-1-piperazinyl)imidazo[1,2-a]pyridin-2-amine] | 0.026 | –
15 | COc1ccc(Nc2nc3ccc(N4CCN(C(C)=O)CC4)cn3c2-c2nc(C)nc(N)n2)cn1 [Cpd 285, 6-(4-acetyl-1-piperazinyl)-3-(4-amino-6-methyl-1,3,5-triazin-2-yl)-N-(6-methoxy-3-pyridinyl)imidazo[1,2-a]pyridin-2-amine] | – | 0.09
16 | COCCNC(=O)n1ccc(Nc2nc3cccnn3c2-c2cc(N)nc(C)n2)n1 [Cpd 264] | 3.15 | 33.4
17 | COc1ccc(Nc2nc3ccccn3c2-c2nc(C)nc(N)n2)cn1 [Cpd 4, 3-(4-amino-6-methyl-1,3,5-triazin-2-yl)-N-(6-methoxypyridin-3-yl)imidazo[1,2-a]pyridin-2-amine] | 0.04 | –
